This passage reports IC50 results from patent publication US12473304B2, “Heterocyclic PAD4 inhibitors” (BRISTOL-MYERS SQUIBB COMPANY, priority 2020, dated 2025).

Chain of human PAD4 (hPAD4) (Q9UM07 whole entry): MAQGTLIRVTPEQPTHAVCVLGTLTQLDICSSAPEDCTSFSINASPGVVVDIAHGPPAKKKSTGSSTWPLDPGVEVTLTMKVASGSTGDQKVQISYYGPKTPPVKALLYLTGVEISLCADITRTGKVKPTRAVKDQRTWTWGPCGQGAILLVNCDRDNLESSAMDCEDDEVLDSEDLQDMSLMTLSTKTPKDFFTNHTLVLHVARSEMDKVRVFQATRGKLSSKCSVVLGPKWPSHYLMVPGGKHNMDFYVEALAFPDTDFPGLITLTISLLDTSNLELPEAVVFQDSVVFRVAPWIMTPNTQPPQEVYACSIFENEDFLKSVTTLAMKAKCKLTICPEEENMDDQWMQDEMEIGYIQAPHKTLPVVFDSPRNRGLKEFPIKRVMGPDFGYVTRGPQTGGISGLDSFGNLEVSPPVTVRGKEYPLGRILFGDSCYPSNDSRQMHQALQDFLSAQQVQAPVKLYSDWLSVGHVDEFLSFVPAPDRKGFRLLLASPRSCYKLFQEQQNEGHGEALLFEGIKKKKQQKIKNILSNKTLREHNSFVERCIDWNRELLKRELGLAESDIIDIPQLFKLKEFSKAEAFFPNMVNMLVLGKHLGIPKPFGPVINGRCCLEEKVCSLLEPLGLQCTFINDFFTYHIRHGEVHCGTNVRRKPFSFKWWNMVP

In this assay the target is human PAD4 (hPAD4) (Homo sapiens (Human), UniProt Q9UM07). Nature of the assay: RFMS Human PAD4 Functional Assay 1. It counts as biochemical. The settings on record: RFMS assay 1; 5 nM hPAD4, 250 μM BAEE substrate, 50 μM calcium, 37° C. In short, it runs like this:
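Citrullination product read by RapidFire triple-quad MRM against a modified-citrulline internal standard, after TCA stop and 30 min phenyl glyoxal step at 37 °C. Reaction: 250 μM BAEE, 5 nM human PAD4, 90 min at 37 °C, pH 7.5 HEPES buffer with 50 μM calcium and 5 μM TPEN, following 30 min compound–enzyme preincubation (max 50 μM).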
A word on the IC50: it is the point on the concentration scale where inhibition reaches its midpoint. In the case of `Cc1c(-c2cc3cccc(OCC4CNC(=O)C4)c3n2CC2CC2)nn2cc(C(=O)N3C[C@H](N)C[C@@H](F)C3)ccc12` (single isomer, unassigned) [Example 590], the half-maximal inhibitory concentration (IC50) stood at 30 nM. For `COCC(=O)N1CCC(c2cc(F)cc3cc(-c4nn5cc(C(=O)N6C[C@H](N)C[C@@H](F)C6)ccc5c4C)n(CC4CC4)c23)CC1` [Example 503, 1-(4-(2-(6-((3R,5R)-3-Amino-5-fluoropiperidine-1-carbonyl)-3-methylpyrazolo[1,5-a]pyridin-2-yl)-1-(cyclopropylmethyl)-5-fluoro-1H-indol-7-yl)piperidin-1-yl)-2-methoxyethan-1-one] the value was 60 nM; for `COc1cccc(-c2ccc3cc(-c4nn5cc(C(=O)N6C[C@H](N)C[C@@H](F)C6)cc(OC)c5c4C)n(CC4CC4)c3c2)c1` [Example 212, (3R,5R)-1-{2-[1-(Cyclopropylmethyl)-6-(3-methoxyphenyl)-1H-indol-2-yl]-4-methoxy-3-methylpyrazolo[1,5-a]pyridine-6-carbonyl}-5-fluoropiperidin-3-amine], 1690 nM; for `COc1cc(C(=O)N2CCC[C@@H](N)C2)cn2nc(-c3cc4cccc(OCCn5cncn5)c4n3CC3CC3)c(C)c12` [Example 555, (R)-(2-(7-(2-(1H-1,2,4-Triazol-1-yl)ethoxy)-1-(cyclopropylmethyl)-1H-indol-2-yl)-4-methoxy-3-methylpyrazolo[1,5-a]pyridin-6-yl)(3-aminopiperidin-1-yl)methanone], 30 nM. For `COc1cc(C(=O)N2C[C@H](N)C[C@@H](F)C2)cc2oc(-c3cc4ccc(-c5cccc(O)c5F)cc4n3CC3CC3)c(C)c12` [Example 163, ((3R,5R)-3-Amino-5-fluoropiperidin-1-yl)(2-(1-(cyclopropylmethyl)-6-(2-fluoro-3-hydroxyphenyl)-1H-indol-2-yl)-4-methoxy-3-methylbenzofuran-6-yl)methanone] the value was 5590 nM; for `Cc1c(-c2cc3ccc(N4CCC(C(=O)N5CCCC5)CC4)cc3n2CC2CC2)nn2cc(C(=O)N3CCC[C@@H](N)C3)ccc12` [Example 361, (3R)-1-{2-[1-(Cyclopropylmethyl)-6-[4-(pyrrolidine-1-carbonyl)piperidin-1-yl]-1H-indol-2-yl]-3-methylpyrazolo[1,5-a]pyridine-6-carbonyl}piperidin-3-amine], 300 nM; for `Cc1c(-c2cc3ccc(-c4ccc5[nH]ncc5c4)nc3n2CC2CC2)nn2cc(C(=O)N3CCC[C@@H](N)C3)ccc12` [Example 309, (3R)-1-{2-[1-(Cyclopropylmethyl)-6-(1H-indazol-5-yl)-1H-pyrrolo[2,3-b]pyridin-2-yl]-3-methylpyrazolo[1,5-a]pyridine-6-carbonyl}piperidin-3-amine], 400 nM. On to `COc1cc(C(=O)N2C[C@H](N)C[C@@H](F)C2)cn2nc(-c3cc4ccnc(OCC5CNC(=O)C5)c4n3CC3CC3)c(C)c12` (single isomer, unassigned; isomer 1) [Example 601], for which the IC50 was 30 nM. For `Cc1c(-c2cc3ccc(N4CCC(N5CCCC5=O)CC4)cc3n2CC2CC2)nn2cc(C(=O)N3CCC[C@@H](N)C3)ccc12` [Example 363, 1-[1-(2-{6-[(3R)-3-Aminopiperidine-1-carbonyl]-3-methylpyrazolo[1,5-a]pyridin-2-yl}-1-(cyclopropylmethyl)-1H-indol-6-yl)piperidin-4-yl]pyrrolidin-2-one] the value was 2280 nM; for `COc1cc(C(=O)N2C[C@H](N)C[C@@H](F)C2)cn2nc(-c3cc4ccnc(OCCn5cnnc5)c4n3C)c(C)c12` [Example 620, (2-(7-(2-(4H-1,2,4-Triazol-4-yl)ethoxy)-1-methyl-1H-pyrrolo[2,3-c]pyridin-2-yl)-4-methoxy-3-methylpyrazolo[1,5-a]pyridin-6-yl)((3R,5R)-3-amino-5-fluoropiperidin-1-yl)methanone], 450 nM; for `COc1cc(C(=O)N2CC3CCC2[C@@H]3N)cc2sc(-c3cc4ccc(-c5ccc6c(c5)CNC6=O)cc4n3CC3CC3)c(C)c12` (stereo partly drawn) [Example 126, 5-(2-(6-((7R)-7-Amino-2-azabicyclo[2.2.1]heptane-2-carbonyl)-4-methoxy-3-methylbenzo[b]thiophen-2-yl)-1-(cyclopropylmethyl)-1H-indol-6-yl)isoindolin-1-one], 122 nM. With `Cc1c(-c2cc3ccccc3n2CC2CC2)oc2cc(C(=O)N3C[C@H](N)C[C@@H](F)C3)ccc12` [Example 194, ((3R,5R)-3-Amino-5-fluoropiperidin-1-yl)(2-(1-(cyclopropylmethyl)-1H-indol-2-yl)-3-methylbenzofuran-6-yl)methanone] the figure was 1800 nM; with `Cc1cc(-c2ccc3cc(-c4nn5cc(C(=O)N6CC7CCC6[C@@H]7N)cc(F)c5c4C)n(CC4CC4)c3n2)ccc1C(N)=O` (stereo partly drawn) [Example 262, 4-(2-{6-[(7R)-7-Amino-2-azabicyclo[2.2.1]heptane-2-carbonyl]-4-fluoro-3-methylpyrazolo[1,5-a]pyridin-2-yl}-1-(cyclopropylmethyl)-1H-pyrrolo[2,3-b]pyridin-6-yl)-2-methylbenzamide], 120 nM. Turning to `COc1cc(C(=O)N2CCC[C@@H](N)C2)cn2nc(-c3cc4ccc(-c5ccc(C(=O)N(C)C)cc5)cc4n3CC3CC3)c(C)c12` [Example 230, 4-(2-{6-[(3R)-3-Aminopiperidine-1-carbonyl]-4-methoxy-3-methylpyrazolo[1,5-a]pyridin-2-yl}-1-(cyclopropylmethyl)-1H-indol-6-yl)-N,N-dimethylbenzamide], the IC50 was determined as 320 nM. For `Cc1c(-c2cc3ccc(-c4ccc(OC(F)F)c(F)c4)nc3n2CC2CC2)nn2cc(C(=O)N3CC4CCC3[C@@H]4N)ccc12` (stereo partly drawn) [Example 73, ((7R)-7-Amino-2-azabicyclo[2.2.1]heptan-2-yl)(2-(1-(cyclopropylmethyl)-6-(4-(difluoromethoxy)-3-fluorophenyl)-1H-pyrrolo[2,3-b]pyridin-2-yl)-3-methylpyrazolo[1,5-a]pyridin-6-yl)methanone] the value was 605 nM; for `COCC(=O)N1CC(c2cccc3cc(-c4nn5cc(C(=O)N6CCC[C@@H](N)C6)ccc5c4C)n(CC4CC4)c23)C1` [Example 546, (R)-1-(3-(2-(6-(3-Aminopiperidine-1-carbonyl)-3-methylpyrazolo[1,5-a]pyridin-2-yl)-1-(cyclopropylmethyl)-1H-indol-7-yl)azetidin-1-yl)-2-methoxyethan-1-one], 560 nM.

`Cc1c(-c2cc3ccc(-c4ccn5c(C)nnc5c4)cc3n2CC2CC2)nn2cc(C(=O)N3CC4CCC3[C@@H]4N)cc(F)c12` (stereo partly drawn) [Example 295, (7R)-2-{2-[1-(Cyclopropylmethyl)-6-{3-methyl-[1,2,4]triazolo[4,3-a]pyridin-7-yl}-1H-indol-2-yl]-4-fluoro-3-methylpyrazolo[1,5-a]pyridine-6-carbonyl}-2-azabicyclo[2.2.1]heptan-7-amine]: the IC50 was 20 nM. For `Cc1c(-c2cc3ccc(-c4ccc(C(N)=O)c(F)c4)nc3n2CC2CC2)oc2cc(C(=O)N3CC4CCC3[C@@H]4N)ccc12` (stereo partly drawn) [Example 170, 4-(2-(6-((7R)-7-amino-2-azabicyclo[2.2.1]heptane-2-carbonyl)-3-methylbenzofuran-2-yl)-1-(cyclopropylmethyl)-1H-pyrrolo[2,3-b]pyridin-6-yl)-2-fluorobenzamide] the value was 135 nM; for `COc1cc(C(=O)N2CCC[C@@H](N)C2)cn2nc(-c3cc4ccc(N5CCC(S(C)(=O)=O)CC5)cc4n3CC3CC3)c(C)c12` [Example 248, (3R)-1-{2-[1-(Cyclopropylmethyl)-6-(4-methanesulfonylpiperidin-1-yl)-1H-indol-2-yl]-4-methoxy-3-methylpyrazolo[1,5-a]pyridine-6-carbonyl}piperidin-3-amine], 60 nM; for `COc1cc(C(=O)N2CCC[C@@H](N)C2)cn2nc(-c3cc4cccc(OC[C@H]5CCC(=O)N5)c4n3CC3CC3)c(C)c12` [Example 561, (R)-5-(((2-(6-((R)-3-Aminopiperidine-1-carbonyl)-4-methoxy-3-methylpyrazolo[1,5-a]pyridin-2-yl)-1-(cyclopropylmethyl)-1H-indol-7-yl)oxy)methyl)pyrrolidin-2-one], 640 nM.

Turning to `COc1cc(C(=O)N2CC3CCC2[C@@H]3N)cn2nc(-c3cc4ccc(-c5ccccc5N5CCNC5=O)nc4n3CC3CC3)c(C)c12` (stereo partly drawn) [Example 205, 1-[2-(2-{6-[(7R)-7-Amino-2-azabicyclo[2.2.1]heptane-2-carbonyl]-4-methoxy-3-methylpyrazolo[1,5-a]pyridin-2-yl}-1-(cyclopropylmethyl)-1H-pyrrolo[2,3-b]pyridin-6-yl)phenyl]imidazolidin-2-one], the IC50 stood at 60 nM. With `Cc1c(-c2cc3cccc(OCC4CNC(=O)C4)c3n2CC2CC2)nn2cc(C(=O)N3CCC[C@@H](N)C3)ccc12` (single isomer, unassigned) [Example 589] the figure was 60 nM; with `COc1cc(C(=O)N2C[C@H](N)C[C@@H](F)C2)cn2nc(-c3cc4ccc(N5CCC(N(C)C(C)=O)CC5)cc4n3CC3CC3)c(C)c12` [Example 244, N-[1-(2-{6-[(3R,5R)-3-Amino-5-fluoropiperidine-1-carbonyl]-4-methoxy-3-methylpyrazolo[1,5-a]pyridin-2-yl}-1-(cyclopropylmethyl)-1H-indol-6-yl)piperidin-4-yl]-N-methylacetamide], 70 nM; with `COc1cc(C(=O)N2CC3CCC2[C@@H]3N)cn2nc(-c3cc4ccc(-c5ccc(O)c(F)c5)nc4n3CC3CC3)c(C)c12` (stereo partly drawn) [Example 10, ((7R)-7-Amino-2-azabicyclo[2.2.1]heptan-2-yl)(2-(1-(cyclopropylmethyl)-6-(3-fluoro-4-hydroxyphenyl)-1H-pyrrolo[2,3-b]pyridin-2-yl)-4-methoxy-3-methylpyrazolo[1,5-a]pyridin-6-yl)methanone], 159 nM.
